Data from US9573913B2, “Cathepsin cysteine protease inhibitors” (Merck Sharp & Dohme Corp., priority 2013, dated 2017).

How the values were obtained:
human cathepsin K = human cathepsin K (UniProt P43236); test: Cathepsin K Assay (hrbCat K); assay type: biochemical; conditions: Z-Leu-Arg-AMC substrate, pH 5.5, 15 min preincubation; read-out: hrbCat K (IP (nM))
Summary of the method: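 Human cathepsin K (0.4 nM) was preincubated 15 min at room temperature with compound in 50 mM MES pH 5.5, 2.5 mM EDTA, 2.5 mM DTT and 10% DMSO. Inhibition was fitted to a dose-response model.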

human cathepsin F = target: T1, human cathepsin F (Homo sapiens, UniProt Q9UBX1); test: Cathepsin F assay (hCat F); assay type: biochemical; conditions: Z-Phe-Arg-AMC substrate, pH 5.5, 15 min preincubation; read-out: hCat F (IP (nM))
T1 sequence (Q9UBX1 271-484): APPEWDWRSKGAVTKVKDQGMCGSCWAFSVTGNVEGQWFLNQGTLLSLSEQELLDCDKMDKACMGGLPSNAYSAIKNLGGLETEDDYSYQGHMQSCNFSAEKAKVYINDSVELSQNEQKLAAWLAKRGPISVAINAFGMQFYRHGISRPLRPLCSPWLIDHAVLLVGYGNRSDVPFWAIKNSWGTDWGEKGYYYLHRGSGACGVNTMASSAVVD
Summary of the method: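 Enzyme (10 nM) was preincubated 15 min at room temperature with compounds (1/3 DMSO dilution series, 500–0.025 μM) in 50 mM MES pH 5.5, 2.5 mM EDTA, 2.5 mM DTT, 10% DMSO. Z-Phe-Arg-AMC (8 μM) was added and AMC fluorescence (Ex 360/Em 460 nm) followed for 20 min. % inhibition was fitted to dose-response curves.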

| Compound | IC50 (human cathepsin K) | IC50 (human cathepsin F) |
| --- | --- | --- |
| CN=S1(=O)CCN(c2ccc(-c3oc(C(C)(C)C)nc3[C@@H]3CC[C@H](F)C[C@H]3C(=O)N[C@@H](C)C#N)cc2)CC1 [Example 173, (1R,2R,5S)-2-(2-(tert-butyl)-5-(4-(1-(methylimino)-1-oxidothiomorpholino)phenyl)oxazol-4-yl)-N-((S)-1-cyanoethyl)-5-fluorocyclohexane-carboxamide] | 4.7 nM | 6900 nM |
| CN=S1(=O)CCN(c2ccc(-c3oc(C(C)(C)C)nc3[C@@H]3CC[C@H](F)C[C@H]3C(=O)N[C@H](C#N)C(C)C)cc2)CC1 [Example 174, (1R,2R,5S)-2-(2-(tert-butyl)-5-(4-(1-(methylimino)-1-oxidothiomorpholino)phenyl)oxazol-4-yl)-N-((S)-1-cyano-2-methylpropyl)-5-fluorocyclohexane-carboxamide] | 31.3 nM | ≥ 10000 nM |
| N#CC1(NC(=O)[C@@H]2C[C@@H](F)CC[C@H]2c2nc(-c3ccc(F)cc3)sc2-c2ccc(N3CCS(=N)(=O)CC3)cc2)CC1 [Example 176, (1R,2R,5S)-N-(1-cyanocyclopropyl)-5-fluoro-2-(2-(4-fluorophenyl)-5-(4-(1-imino-1-oxidothiomorpholino)phenyl)thiazol-4-yl)cyclohexane-carboxamide] | 3.2 nM | 3330 nM |
| N#CC1(NC(=O)[C@@H]2CCCC[C@H]2c2nc(NC3CCCCC3)sc2-c2ccc(N3CCS(=O)(=O)CC3)cc2)CC1 [Example 178, (1R,2R)-N-(1-cyanocyclopropyl)-2-(2-(cyclohexylamino)-5-(4-(1,1-dioxidothiomorpho-lino)phenyl)thiazol-4-yl)cyclohexane-carboxamide] | 41.2 nM | 1000 nM |

Further molecules by falling IC50 (human cathepsin K), results first:

| IC50 (human cathepsin K) | IC50 (human cathepsin F) | Compound |
| --- | --- | --- |
| 34.6 nM | 3740 nM | N#CC1(NC(=O)[C@@H]2CCCC[C@H]2c2nc(Nc3ccccc3)sc2-c2ccc(N3CCS(=O)(=O)CC3)cc2)CC1 [Example 179, (1R,2R)-N-(1-cyanocyclopropyl)-2-(5-(4-(1,1-dioxidothiomorpho-lino)phenyl)-2-(phenylamino)thia-zol-4-yl)cyclohexane-carboxamide] |
| 34.4 nM | ≥ 10000 nM | CC(C)[C@@H](C#N)NC(=O)[C@@H]1C[C@@H](F)CC[C@H]1c1nc(C(C)(C)C)oc1-c1ccc(N2CCS(=N)(=O)CC2)cc1 [Example 172, (1R,2R,5S)-2-(2-(tert-butyl)-5-(4-(1-imino-1-oxidothiomorpholino)phenyl)oxazol-4-yl)-N-((S)-1-cyano-2-methylpropyl)-5-fluorocyclohexane-carboxamide] |
| 4.8 nM | 7420 nM | C[C@@H](C#N)NC(=O)[C@@H]1C[C@@H](F)CC[C@H]1c1nc(C(C)(C)C)oc1-c1ccc(N2CCS(=N)(=O)CC2)cc1 [Example 171, (1R,2R,5S)-2-(2-(tert-butyl)-5-(4-(1-imino-1-oxidothiomorpholino)phenyl)oxazol-4-yl)-N-((S)-1-cyanoethyl)-5-fluorocyclohexane-carboxamide] |
| 3.5 nM | 3330 nM | CN=S1(=O)CCN(c2ccc(-c3sc(-c4ccc(F)cc4)nc3[C@@H]3CC[C@H](F)C[C@H]3C(=O)NC3(C#N)CC3)cc2)CC1 [Example 177, (1R,2R,5S)-N-(1-cyanocyclopropyl)-5-fluoro-2-(2-(4-fluorophenyl)-5-(4-(1-(methylimino)-1-oxidothiomorpholino)phenyl)thiazol-4-yl)cyclohexane-carboxamide] |
| 2.1 nM | 1000 nM | N#CC1(NC(=O)[C@@H]2CCCC[C@H]2c2nc(C3(c4ccccc4)CC3)sc2-c2ccc(N3CCS(=O)(=O)CC3)cc2)CC1 [Example 175, (1R,2R)-N-(1-cyanocyclopropyl)-2-(5-(4-(1,1-dioxidothiomorpho-lino)phenyl)-2-(1-phenylcyclopropyl)thiazol-4-yl)cyclohexane-carboxamide] |
